These results are taken from US20180206495A1, “SUBSTITUTED ARYL AND HETEROARYL CARBOXYLIC ACID HYDRAZIDES OR SALTS THEREOF AND USE THEREOF TO INCREASE STRESS TOLERANCE IN PLANTS” (BAYER CROPSCIENCE AKTIENGESELLSCHAFT, priority 2015, published 2018).

One test has as its system Zea mays. Put plainly: In vivo analyses Part A: drought stress, spray application, visual damage scoring, Zea mays. As to the method:
(§1) Seeds of monocotyledonous and dicotyledonous crop plants were sown in sandy loam in wood-fiber or plastic pots, covered with soil or sand and cultivated in a greenhouse under good growth conditions. The trial plants were treated at the early leaf stage (BBCH10-BBCH13). To assure uniform water supply before commencement of stress, the potted plants were supplied with water by dam irrigation prior to substance application. The inventive compounds formulated in the form of wettable powders (WP) were sprayed onto the green parts of the plants as an aqueous suspension at an equivalent water application rate of 600 l/ha with addition of 0.2% wetting agent (e.g. agrotin). Substance application was followed immediately by stress treatment of the plants. For this purpose, the wood-fiber pots were transferred in plastic inserts in order to prevent them from subsequently drying out too quickly. Drought stress was induced by gradual drying out under the following conditions: “Day”: 14 hours with illumination at ˜26-30° C. “Night”: 10 hours without illumination at ˜18-20° C. The duration of the respective stress phases was guided mainly by the condition of the stressed control plants. It was ended (by re-irrigating and transfer to a greenhouse with good growth conditions) as soon as irreversible damage was observed on the stressed control plants. The end of the stress phase was followed by an about 4-7-day recovery phase, during which the plants were once again kept under good growth conditions in a greenhouse. The duration of the recovery phase was guided mainly by when the trial plants had attained a state which enabled visual scoring of potential effects, and is therefore variable. Once this juncture was reached, the intensities of damage were scored visually in comparison to untreated, unstressed controls of the same age. The damage intensity was at first assessed in per cent. These values were then used to calculate the efficacy of the test compounds by the following formula: [formula] EF: Efficacy DIs: Damage intensity of the stressed control plants DIt: Damage intensity of the stressed plants treated with test compound The values reported in tables A-1 to A-3 below are mean values from at least one trial with at least two repeats, showing the effects of selected compounds of the general formula (I) under drought stress on various crop plants.

Test [1] concerns Brassica napus. Put plainly: In vivo analyses Part A: drought stress, spray application, visual damage scoring, Brassica napus. The method, then: as §1
Test [2] has as its system Triticum aestivum. Put plainly: In vivo analyses Part B: drought stress, spray application, appearance vs stressed control in categories, Triticum aestivum. Also noted: key: 0: no positive effect; +: slight positive effect; ++: clear positive effect; +++: strong positive effect. The method, then:
(§2) Seeds of monocotyledonous and dicotyledonous crop plants were sown in sandy loam in plastic pots, covered with soil or sand and cultivated in a greenhouse under good growth conditions. The test plants are treated at the early leaf stage (BBCH10-BBCH13). To assure uniform water supply before commencement of stress, the potted plants were supplied with water by dam irrigation prior to substance application. The inventive compounds were first formulated as wettable powders (WP) or dissolved in a solvent mixture. The further dilution was effected with water supplemented with 0.2% wetting agent (e.g. agrotin). The finished spray liquor was sprayed onto the green parts of the plant at an equivalent water application rate of 600 l/ha. Substance application was followed immediately by stress treatment of the plants. Drought stress was induced by gradual drying out under the following conditions: “Day”: 14 hours with illumination at ˜26-30° C. “Night”: 10 hours without illumination at ˜18-20° C. The duration of the respective stress phases was guided mainly by the condition of the stressed control plants. It was ended (by re-irrigating and transfer to a greenhouse with good growth conditions) as soon as irreversible damage was observed on the stressed control plants. The end of the stress phase was followed by an about 4-7-day recovery phase, during which the plants were once again kept under good growth conditions in a greenhouse. The duration of the recovery phase was guided mainly by when the trial plants had attained a state which enabled visual scoring of potential effects, and was therefore variable. Once this juncture had been reached, the appearance of the plants treated with test substances was recorded in comparison to the stressed control plants by the following categories: • 0 no positive effect • + slight positive effect • ++ clear positive effect • +++ strong positive effect In order to rule out any influence on the effects observed by any fungicidal or insecticidal action of the test compounds, it was additionally ensured that the tests proceeded without fungal infection or insect infestation. The values reported in tables B-1 and B-2 below are mean values of the results from at least three repeats. Effects of selected compounds of the general formula (I) under drought stress according to the following tables B-1 and B-2: […]

Test [3] has as its system Brassica napus. Put plainly: In vivo analyses Part B: drought stress, spray application, appearance vs stressed control in categories, Brassica napus. Also noted: key: 0: no positive effect; +: slight positive effect; ++: clear positive effect; +++: strong positive effect. The method, then: as §2
Test [4] has as its system Triticum aestivum. Put plainly: In vivo analyses Part A: drought stress, spray application, visual damage scoring, Triticum aestivum. The settings on record: dosage 250 g/ha. As to the method:
as §1

Bounds are passed on as bounds.

For `CN(C)N(Cc1cc(C(F)(F)F)ccc1Cl)C(=O)c1ccccn1` [D1-86], in the test on Zea mays (dosage 250 g/ha), the “EF [%] (ZEAMX)” value is above 5%. Also, the “EF [%] (BRSNS)” value in the test with Brassica napus [1] (dosage 25 g/ha) is reported as above 5%.

Take `CN(C)N(Cc1ccc(Cl)cc1Cl)C(=O)c1ccc(Cl)cc1Cl` [A12-5]: the “EF [%] (BRSNS)” value in the test on Brassica napus [1] (dosage 25 g/ha) was above 5%.

For `CN(C)N(Cc1ccccc1Cl)C(=O)c1cnccc1C(F)(F)F` [B1-1], the “EF [%] (ZEAMX)” value in the test on Zea mays (dosage 25 g/ha) was above 5%.

Consider `CN(C)N(CCc1ccccc1Cl)C(=O)c1ccccc1C(F)(F)F` [A1-612], for which the “EF [%] (ZEAMX)” value in the test on Zea mays (dosage 250 g/ha) is recorded as above 5%. In addition, the “Effect (TRZAS)” value in the test with Triticum aestivum [2] (dosage 25 g/ha) was “+”. The “Effect (BRSNS)” value with Brassica napus [3] (dosage 25 g/ha) is on record as “+”.

As to `CN(C)N(CCc1ccc(C(C)(C)C)cc1)C(=O)c1cc(Cl)ccc1Cl` [A7-639], in the test on Zea mays (dosage 250 g/ha), the “EF [%] (ZEAMX)” value is above 5%. Besides, the “EF [%] (BRSNS)” value with Brassica napus [1] (dosage 25 g/ha) is given as above 5%.

For the compound `CN(C)N(Cc1ccccc1C#N)C(=O)c1ccncc1` [C1-61], the “EF [%] (BRSNS)” value in the test with Brassica napus [1] (dosage 250 g/ha) is listed as above 5%.

Take `CN(C)N(Cc1ccccn1)C(=O)c1ccccc1C(F)(F)F` [A1-21]: in the test with Brassica napus [1] (dosage 25 g/ha), the “EF [%] (BRSNS)” value is listed as above 5%.

Turning to `CN(C)N(CCc1ccc(Cl)cc1Cl)C(=O)c1ccc(Cl)cc1` [A9-615], the “EF [%] (ZEAMX)” value in the test on Zea mays (dosage 250 g/ha) is above 5%.

`Cc1c(OCC(F)(F)F)ccnc1CN(C(=O)c1ccccc1Cl)N(C)C` [A10-144]: the “EF [%] (TRZAS)” value in the test with Triticum aestivum [4] is given as above 5%.

For the compound `CN(C)N(Cc1ccccc1Cl)C(=O)c1cc(Cl)ccc1Cl` [A7-1], the “EF [%] (BRSNS)” value in the test with Brassica napus [1] (dosage 25 g/ha) is recorded as above 5%.

As for `CN(C)N(Cc1ccccc1F)C(=O)c1cc(Cl)ccc1Cl` [A7-11], the “EF [%] (BRSNS)” value with Brassica napus [1] (dosage 25 g/ha) was above 5%.

Regarding `CN(C)N(Cc1ccccn1)C(=O)c1cccnc1C(F)(F)C(F)(F)F` [B3-21], the “EF [%] (ZEAMX)” value with Zea mays (dosage 25 g/ha) is reported as above 5%. In addition, the “EF [%] (BRSNS)” value in the test on Brassica napus [1] (dosage 250 g/ha) is on record as above 5%.

For `CN(C)N(Cc1c(Cl)cccc1Cl)C(=O)c1ccccc1Cl` [A10-7], the “EF [%] (BRSNS)” value in the test with Brassica napus [1] (dosage 250 g/ha) is on record as above 5%.

Turning to `CN(C)N(Cc1ccc2ccccc2n1)C(=O)c1cnccc1C(F)(F)F` [B1-122], the “EF [%] (ZEAMX)” value in the test with Zea mays (dosage 250 g/ha) was above 5%. Besides, the “EF [%] (BRSNS)” value with Brassica napus [1] (dosage 25 g/ha) is on record as above 5%.

Take `CN(C)N(Cc1ccc(Cl)cc1)C(=O)c1ccc(Cl)cc1` [A9-3]: in the test on Zea mays (dosage 250 g/ha), the “EF [%] (ZEAMX)” value was above 5%. Also, the “EF [%] (BRSNS)” value in the test on Brassica napus [1] (dosage 250 g/ha) is reported as above 5%.

Regarding `Cc1c(OCC(F)(F)F)ccnc1CN(C(=O)c1ccc(Cl)cc1)N(C)C` [A9-144], the “EF [%] (ZEAMX)” value with Zea mays (dosage 25 g/ha) is recorded as above 5%.

Turning to `COc1ccccc1C(=O)N(Cc1ccccc1Cl)N(C)C` [A8-1], the “EF [%] (BRSNS)” value in the test with Brassica napus [1] (dosage 2.5 g/ha) is above 5%.

`CN(C)N(Cc1ncc(C(F)(F)F)cc1Cl)C(=O)c1ccc(F)cc1C(F)(F)F` [A14-36]: the “EF [%] (ZEAMX)” value with Zea mays (dosage 250 g/ha) is listed as above 5%.

For `CN(C)N(Cc1ccccc1C#N)C(=O)c1ccccc1Cl` [A10-61], the “EF [%] (BRSNS)” value with Brassica napus [1] (dosage 25 g/ha) was above 5%.

With `CN(C)N(Cc1ccccc1C#N)C(=O)c1ccccc1I` [A36-61], the “Effect (TRZAS)” value in the test with Triticum aestivum [2] (dosage 250 g/ha) is on record as “+”. Moreover, in the test with Brassica napus [3] (dosage 250 g/ha), the “Effect (BRSNS)” value was “+”.

As to `CN(C)N(Cc1ncc(C(F)(F)F)cc1Cl)C(=O)c1ccc(F)cc1F` [A52-36], the “Effect (TRZAS)” value in the test on Triticum aestivum [2] (dosage 250 g/ha) is on record as “+”. For the same compound, in the test with Brassica napus [3] (dosage 25 g/ha), the “Effect (BRSNS)” value is on record as “+++”.

Regarding `CN(C)N(Cc1cccc(C#N)c1)C(=O)c1cnccc1C(F)(F)F` [B1-62], in the test with Triticum aestivum [2] (dosage 250 g/ha), the “Effect (TRZAS)” value is given as “+”. Further, the “Effect (BRSNS)” value in the test on Brassica napus [3] (dosage 250 g/ha) is “++”.

Consider `CN(C)N(Cc1ccc(Br)cc1F)C(=O)c1ccccc1C(F)(F)F` [A1-44], for which the “EF [%] (ZEAMX)” value with Zea mays (dosage 250 g/ha) is above 5%.

For `CN(C)N(Cc1ccc(Cl)nc1)C(=O)c1ccc(C(F)F)nc1` [B6-94], the “Effect (TRZAS)” value in the test on Triticum aestivum [2] (dosage 250 g/ha) is “+”. The “Effect (BRSNS)” value in the test with Brassica napus [3] (dosage 250 g/ha) is “+”.

For `CN(C)N(Cc1ccc2ccccc2n1)C(=O)c1cccc(C#N)c1` [A34-122], the “EF [%] (ZEAMX)” value in the test with Zea mays (dosage 25 g/ha) is reported as above 5%.
